According to US9598383B2, “Reactive oxygen species-based prodrugs” (The Regents of the University of California, priority 2013, dated 2017):

What was measured:
[1] = Stability of model compounds in simulated physiological conditions, analytical HPLC; format: physicochemical; conditions: for stability: HEPES, RT, 24 h; for stability at physiological pH: 100 mM TRIS-HCl; for stability in the presence of glutathione: glutathione (9 equiv)
[2] = H2O2-triggered deprotection of model compounds (conversion to acid), analytical HPLC; format: physicochemical; conditions: for percent conversion to acid: incubation at RT; for deprotection, conversion to the acid: excess of H2O2 (27 equiv) in buffer, after 4 h of incubation
Description: To be effective prodrugs must have good water solubility and be rapidly converted to the active drug under the desired stimulus. These two aspects were evaluated first in model systems. […] An authentic HPLC trace of each was obtained and was then compared to a trace obtained after 1 h and 4 h of incubation. […] The stability of each compound was tested at physiological pH (100 mM TRIS-HCl, pH 7.2) as well as in the presence of glutathione (9 equiv).
Injections consisted of 100 μL, of a 50 μM.

[3] = Hydrolytic stability of prodrugs in buffer and with biologically relevant nucleophiles, analytical HPLC
Description: Initially, an authentic HPLC trace was obtained of proIBU and proMMPi, and a second trace was obtained after incubating in buffer (100 mM TRIS-HCl, pH 7.4) for 24 h at 37° C. Each prodrug was incubated in the same conditions, with the addition of 20 equivalents of lysine, serine and glutathione, all in distinct trials.
All compounds were initially dissolved in DMSO and further diluted with specified buffer. Injections consisted of 100 μl, of a 1 mM solution.

COX-1 = assay: COX inhibition, commercially available fluorescent assay (COX-1); format: biochemical; conditions: COX-1 isoform
Description: The efficacy of the prodrug to inhibit its target was also evaluated. For proIBU a commercially available fluorescent assay was utilized. ProIBU was tested against both isoforms of the COX enzyme. […] Table 1 and FIG. 3.

SMILES	stability ([1]; pH 7.2 + GSH (9 equiv))	stability ([1]; pH 7.2)	stability ([1]; pH 8.0)	percent conversion to acid ([2]; 1 h)	percent conversion to acid ([2]; 4 h)	stability at physiological pH ([1]; pH 7.2)	stability in the presence of glutathione [1]	deprotection, conversion to the acid [2]	hydrolytic stability ([3]; 100 mM TRIS-HCl, pH 7.4, 24 h at 37° C., 20 equivalents of glutathione)	hydrolytic stability ([3]; 100 mM TRIS-HCl, pH 7.4, 24 h at 37° C., 20 equivalents of lysine)	hydrolytic stability ([3]; 100 mM TRIS-HCl, pH 7.4, 24 h at 37° C., 20 equivalents of serine)	hydrolytic stability ([3]; buffer (100 mM TRIS-HCl, pH 7.4), 24 h at 37° C.)	inhibition of COX enzyme (COX-1)
O=C1OCCN1C(=O)c1ccccc1 [Compound 1, 3-benzoyloxazolidin-2-one]	>99%	>99%	>99%	14.6%	25.6%								
O=C(c1ccccc1)N1CCSC1=S [Compound 4, Phenyl(2-thioxothiazolidin-3-yl)methanone]	77.6%	57.0%	54.8%	48.5%	>99%	poorer stability	poorer stability	full deprotection					
O=C1SCCN1C(=O)c1ccccc1 [Compound 2, 3-benzoylthiazolidin-2-one]	>99%	88.6%	82.5%	13.6%	37.8%								
O=C(Cc1ccccc1)N1CCSC1=O [Compound 6, 3-(2-phenylacetyl)thiazolidin-2-one]	>99%	>99%	>99%	23.3%	67.8%								
O=C(Cc1ccccc1)N1CCOC1=O [Compound 5, 3-(2-phenylacetyl)oxazolidin-2-one]	86.3%	>99%	94.5%	<1%	<1%								
CC(C)Cc1ccc(C(C)C(=O)N2CCSC2=O)cc1 (stereo not drawn) [proIBU, 3-(2-(4-isobutylphenyl)propanoyl)thiazolidin-2-one]									> 99%	> 99%	> 99%	> 99%	little to no inhibition
O=C(Cc1ccccc1)N1CCOC1=S [Compound 7, 2-phenyl-1-(2-thioxooxazolidin-3-yl)ethan-1-one]	45.7%	54.6%	24.4%	81.6%	>99%	poorer stability	poorer stability	full deprotection					
O=C(c1ccccc1)N1CCOC1=S [Compound 3, Phenyl(2-thioxooxazolidin-3-yl)methanone]	59.5%	95.5%	41.2%	44.7%	>99%	poorer stability	poorer stability	full deprotection					
O=C(Cc1ccccc1)N1CCSC1=S [Compound 8, 2-phenyl-1-(2-thioxothiazolidin-3-yl)ethan-1-one]	39.5%	32.5%	<1%	87.6%	>99%	poorer stability	poorer stability	full deprotection					
